Several values for one entry are separate records, joined by “and”; a condition that tells them apart may be missing. Equal values may be shown once.
System: IMR90-4-derived BMECs
Assay: TEER of RA-treated IMR90-4-derived BMECs (monoculture and neural cell co-culture)
Assay type: cell-based, human
Method: IMR90-4 and DF19-9-11T hiPSCs and H9 hESCs were maintained between passages 26-42 on […] (BD Biosciences) in mTeSR1™ medium ([…] Technologies) or on irradiated mouse embryonic fibroblasts (MEFs) in standard unconditioned medium (Dulbecco's Modified Eagle's Medium [DMEM]/Ham's F12 containing 20% Knockout Serum Replacer (Invitrogen), 1×MEM nonessential amino acids (Invitrogen), 1 mM L-glutamine (Sigma), 0.1 mM β-mercaptoethanol (Sigma), and human basic fibroblast growth factor (bFGF; 100 ng/mL for hiPSCs and 4 ng/mL for hESCs; Waisman Clinical Biomanufacturing Facility, University of Wisconsin-Madison)). Prior to differentiation, cells were passaged onto Matrigel (BD Biosciences) in mTeSR1 medium ([…] Technologies). After 2-3 days in mTeSR1, medium was switched to unconditioned medium (UM) lacking bFGF for 6 days. Human endothelial serum-free medium (hESFM; Invitrogen) supplemented with 20 ng/mL bFGF (R&D Systems) and 1% platelet-poor plasma derived bovine serum (Biomedical Technologies, Inc.) was then added for an additional 2-4 days.
All-trans RA (Sigma) was included at concentrations of 1-10 μM depending on the experiment. Equivalent DMSO was used as a vehicle control in some experiments. Cells were then dissociated with Versene (Invitrogen) and plated onto 12-well tissue culture polystyrene plates or 1.12 cm^2 Transwell-Clear® permeable inserts (0.4 μm pore size) coated with a mixture of collagen IV (400 μg/mL; Sigma) and fibronectin (100 μg/mL; Sigma). Culture plates were incubated with the coating for at least 30 min at 37° C., while the inserts were incubated for a minimum of 4 h at 37° C. hPSC-derived BMECs were then cultured in EC medium overnight (with or without RA). […] Also, our previous study used hPSCs exclusively maintained on MEFs.
FIG. 5 dictates the timing of co-culture experiments. During the subculture phase, hPSC-derived BMECs were monocultured or co-cultured with pericytes or fibroblasts in EC medium (with or without RA). After the 24 h subculture phase, hPSC-derived BMECs were maintained as a monoculture or co-cultured with differentiated hNPCs, pericytes, or fibroblasts. Depending on the experiment, co-culture was conducted in NPC differentiation medium containing 10% FBS (as opposed to the 1% FBS used during NPC differentiation) or hESFM containing 1% PDS but not bFGF (modified EC medium). Trans-endothelial electrical resistance (TEER) was measured immediately prior to co-culture using an EVOM voltohmmeter (World Precision Instruments, Sarasota, Fla., USA) and approximately every 24 h thereafter as necessary.

## CC1=C(/C=C/C(C)=C/C=C/C(C)=C/C(=O)O)C(C)(C)CCC1 [RA, retinoic acid]
24 hours after transfer to EC medium without bFGF or RA, monoculture
  TEER: above 2000 Ω×cm^2
24 hours in modified EC medium, fibroblasts (FIG. 11a)
  TEER: 2405±366 Ω×cm^2
24 hours in modified EC medium, monoculture control (FIG. 11a)
  TEER: 2474±124 Ω×cm^2
24 hours, sequential pericyte/hNPC co-culture in modified EC medium (FIG. 11a)
  TEER: 5160±318 Ω×cm^2
pericyte/hNPC co-culture, each of 7 co-cultures, hNPCs differentiated 10-19 days, 10% FBS (FIG. 10c)
  TEER: exceeded 2500 Ω×cm^2
pericytes/hNPCs in modified EC medium, five out of six separate co-culture experiments
  TEER under optimal conditions: > 5000 Ω×cm^2
subculture: monoculture, co-culture phase: differentiated NPCs (10 days), 10% FBS
  Maximum TEER: 2938 ± 229 (3) Ω × cm^2
subculture: pericytes, co-culture phase: differentiated NPCs (10 days), 10% FBS
  Maximum TEER: 3606 ± 366 (7) Ω × cm^2
subculture: pericytes, co-culture phase: differentiated NPCs (17 days), 1% PDS
  Maximum TEER: 5352±252 Ω × cm^2 and 5352 ± 252 (6) Ω × cm^2
subculture: pericytes, co-culture phase: pericytes, 1% PDS (modified EC medium), 24 h
  Maximum TEER: 4454±174 Ω × cm^2 and 4454 ± 175 ^ Ω × cm^2
subculture: pericytes, co-culture phase: pericytes, 10% FBS
  Maximum TEER: 2892 ± 271 ^ Ω × cm^2
T = 0 h, monoculture, mean ± S.D. between biological replicates
  Average TEER: 956 ± 345 Ω × cm^2
T = 0 h, monoculture, mean ± S.D. between triplicate filters
  Maximum TEER: 1502 ± 145 Ω × cm^2
T = 24 h, monoculture, modified EC medium without bFGF or RA, between biological replicates
  Average TEER: 2935±802 Ω × cm^2 and at least 2935±802 Ω × cm^2
T = 24 h, monoculture, triplicate filters
  Maximum TEER: 3674 ± 367 Ω × cm^2
t=0 h, 24 hours after purification at confluence, range over experiments
  baseline TEER: 300-1500 Ω×cm^2
t=0, human foreskin fibroblasts in place of pericytes (FIG. 11a)
  TEER: 2106±30 Ω×cm^2
t=0, monoculture control of FIG. 11a
  TEER: 1575±163 Ω×cm^2
t=0, pericyte co-culture during the subculture phase, standard EC medium (FIG. 11a)
  TEER: 3573±175 Ω×cm^2

Source: patent US10590393B2, “Retinoic acid enhanced human stem cell derived blood brain barrier model” (Wisconsin Alumni Research Foundation, priority 2012, dated 2020)
